The source of these data is patent US10745719B2, “Enzymes and methods for dealkylation of substrates” (Alliance for Sustainable Energy, LLC, priority 2015, dated 2020).

Molecules are shown by their SMILES.

The subject of one series is P. putida KT2440/pCJ021. The experiment in a line: Growth on and metabolism of aromatic substrate by P. putida KT2440/pCJ021 (cytochrome P450 O-dealkylase and reductase) in M9 minimal medium. The format is cell-based, Pseudomonas putida. The text has this:
(§1) The genes encoding the cytochrome P450 protein and the co-transcribed reductase were amplified from Amycolatopsis sp. ATCC 39116 DNA using primers oCJ169 and oCJ170 (see Table 2) and the product assembled using Gibson Assembly Master Mix (New England BioLabs) into the broad host-range vector pBTL-2, which was amplified using primers oCJ160 and oCJ161, resulting in pCJ021. pBTL-2 (a gift from Ryan Gill; Addgene plasmid #22806) is a broad host-range vector that drives expression of inserted genes using the lac promoter, which is constitutively expressed in Pseudomonas putida KT2440. The cytochrome P450 gene alone was also amplified using oCJ169 and oCJ206 and assembled it into the same vector (resulting in pCJ024). pCJ021 was then transformed into P. putida KT2440 to generate P. putida KT2440/pCJ021.
HPLC analysis was performed by injecting 6 μL of 0.2 μm filtered culture supernatant onto an Agilent 1100 series system equipped with a Phenomenex Rezex RFQ-Fast Acid H+ (8%) column and a cation H+ guard cartridge (Bio-Rad Laboratories) at 85° C. run using a mobile phase of 0.01 N sulfuric acid at a flow rate of 1.0 mL/min and a diode array detector to measure absorbance at 210 nm. Analytes were identified by comparing retention times and spectral profiles with pure standards. HPLC chromatograms show milli-absorbance units (mAU) on the Y axis and retention time (minutes) on the X axis.
(§2) P. putida KT2440 can readily metabolize catechol for growth, so a functional enzyme with O-dealkylase activity would convert guaiacol or guaethol to catechol and enable this organism to metabolize guaiacol or guaethol for growth, which it is not natively capable of.
HPLC analyses show the disappearance of guaiacol in a culture of P. putida KT2440/pCJ021 grown on M9 minimal medium containing guaiacol and the lack of guaiacol catabolism by native P. putida KT2440 (FIG. 6).

Series [1] deals with P. putida KT2440 transformed with pCJ024. The experiment in a line: Metabolism of guaiacol by P. putida KT2440 transformed with pCJ024 (cytochrome P450 gene alone). Particulars: M9 minimal medium, 5 mM guaiacol. The format is cell-based, Pseudomonas putida.
From the text: as §1, §2

Where [2] appears, read: 5 mM guaiacol as sole source of carbon and energy.

On to `CCOc1ccccc1O` [guaethol, 2-ethoxyphenol], for which the metabolism of substrate result in the series on P. putida KT2440/pCJ021 (5 mM guaethol as sole source of carbon and energy, 72 hours) is recorded as “able to metabolize the guaethol”. This molecule yielded an OD600 reached with P. putida KT2440/pCJ021 (5 mM guaethol, growth on the catechol produced) of 7.
`COc1ccccc1O` [guaiacol, 2-methoxyphenol]: the OD600 reached result with P. putida KT2440/pCJ021 (setting [2]) is reported as “over 0.5”. In addition, the metabolism of substrate result in the series on P. putida KT2440/pCJ021 (setting [2]) is “metabolizing the guaiacol completely”; in series [1] it was “neither of these strains was able to metabolize guaiacol”.
